# Experimental data published in patent publication US9856256B2, “Pyridino[1,2-A]pyrimidone analogue used as P13K inhibitor” (CHIA TAI TIANQING PHARMACEUTICAL GROUP CO., LTD., priority 2014, dated 2018).
# pIC50: −log10 of the molar value.
# How the values were obtained:
# [1] = biological target: T1, mTOR (Homo sapiens, UniProt P42345); assay: In vitro enzyme activity assay, mTOR kinase (32P-ATP, P81 filter-binding); assay type: biochemical; settings: 4EBPI substrate, 10 μM ATP; read-out: mTOR enzyme activity_IC50
# T1 construct: recombinant human mTOR fragment (amino acid 1360-2549, molecular weight=163.9 kDa); GST-tag (N); host or cells: insect cells
# Description: mTOR kinase activities of the compounds in all the examples of the present invention were tested via the following method.
# Reaction buffer: 20 mM Hepes (pH 7.5), 10 mM MgCl2, 2 mM MnCl2, 1 mM EGTA, 0.02% Brij35, 0.02 mg/mL BSA, 0.1 mM Na3VO4, 2 mM DTT, and 2% DMSO.
# Enzyme for reaction: recombinant human mTOR fragment (amino acid 1360-2549, molecular weight=163.9 kDa) with a GST-tag at the N-terminus, which was expressed in insect cells.
# Substrate for reaction: recombinant full-length human 4EBPI (molecular weight=13.6 kDa) with a His-tag at the N-terminus, which was expressed in bacteria.
# Reaction conditions: […] 4EBPI and 10 μM ATP.
# 1. adding the reaction substrate and other reaction factors into the freshly prepared reaction buffer;
# (§1) 2. adding the kinase into the substrate reaction solution, and mixing gently;
# 3. transferring the compound dissolved in 100% DMSO into the kinase reaction solution by using Acoustic technique (Echo550; nanoliter rang), and incubating at room temperature for 20 minutes;
# 4. adding an appropriate concentration of ^32P-ATP into the reaction system;
# 5. incubating at room temperature for 2 hours;
# 6. detecting the kinase activity by using P81 filter-binding method.
# [2] = system: MCF-7 cells; assay: In vitro cell activity assay (MCF-7, insulin stimulation, ELISA-One); assay type: cell-based; settings: Homo sapiens, MCF7, compound 2 hours in serum-free media, then 10 μg/ml insulin 30 min
# Description: Experimental Steps and Method Comprise:
# 1. MCF-7 cells were seeded at 2,5000 cells per well in a 96 well tissue culture plate in a complete media containing 10%0/FBS.
# 3. The cells were treated with 10 μg/ml insulin in serum-free media for 30 min.
# 4. During waiting period, lysis solution was prepared as below:
# a) Enhancer Solution needs to be taken out from the refrigerator to be thawed.
# b) Concentrated lysis solution was prepared by diluting Enhancer Solution 10-fold in 5× Lysis Buffer.
# c) Lysis solution was prepared by diluting concentrated lysis solution 5-fold with ddH2O.
# 5. Any media were removed from wells and the wells were rinsed with PBS once quickly.
# 6. 50 μL of freshly prepared lysis solution were added into each well, with shaking at room temperature for 10 min.
# 7. After confirming that all cells get detached from wells, the lysis solution together with the cell debris was transferred to 1.5 ml tubes.
# 8. The tubes were vortexed several times to thoroughly mix the lysis solution and cells, and then, and then the mixture was centrifuged at 12,000 g for 10 min at 4° C.;
# 9. The desired number of ELISA-One microplate strips was determined. Unused strips were removed from frame and returned to storage pouch and seal. Wells for use in the assay were rinsed with 200 μL ddH2O to remove preservatives prior to use.
# 10. 50 μL of antibody mixture solution was added into each well. (Antibody mixture solution was prepared by mixing capture antibody reagent and detection antibody reagent equally, avoid vortexing)
# 11. 25 μL of lysate was added into each well of the ELISA-One microplate. The microplate was covered with adhesive seal and incubated for 1 hour at room temperature on a microplate shaker.
# 12. Each well was washed with 150 μL 1× wash buffer 3 times. After final wash, any remaining wash buffer was removed from wells. If necessary, leave microplate in 1× Wash Buffer for up to 30 min, until substrate mixture solution has been prepared.
# 13. The substrate mixture solution should be prepared when used, 100 μL of substrate mixture solution was added into each well, and then the microplate was sealed with tin foil and incubated at room temperature for 10 minutes on a microplate shaker.
# 14. 10 μL of stop solution was added into each well, and then mixed slightly (5-10 seconds) on a microplate shaker.
# 15. Corresponding ELISA-One filter set was installed to read the fluorescence signal intensity.
# [3] = biological target: T2, PI3K (p110α) (Homo sapiens, UniProt P42336); assay: In vitro enzyme activity assay, PI3K (p110α) kinase, Method I (HTRF); assay type: biochemical; design: recombinant full-length human PI3K p110α subunit; His-tag (N); host or cells: insect cells; settings: 10 μM PI(4,5)P2 and 10 μM ATP), read-out: PI3K (p110α) enzyme activity_IC50
# Description: (§2) PI3K (p110α) kinase activities of the compounds in all the examples of the present invention were tested via the following two methods, respectively.
# Reaction buffer: HEPES 50 mM (pH7.0), NaN3 0.02%, BSA 0.01%. Orthovanadate 0.1 mM, and 1% DMSO.
# Detection buffer: HEPES 10 mM (pH7.0), BSA 0.02%, KF 0.16 M, and EDTA 4 mM.
# Enzymes for reaction: recombinant full-length human PI3K p110α subunit (molecular weight=128.4 kDa) with a His-tag at the N-terminus and unlabeled p85α subunit (molecular weight=83.6 kDa), which were expressed in insect cells.
# Substrate for reaction: […] PIP2 substrate (PI(4,5)P2).
# Reaction conditions: 10 μM PI(4,5)P2 and 10 μM ATP.
# 1. preparing the substrate in the freshly prepared reaction buffer;
# as §1
# 3. transferring the compound dissolved in 100% DMSO into the kinase reaction solution by using Acoustic technique (Echo550; nanoliter rang), and incubating at room temperature for 10 minutes;
# 4. adding an appropriate concentration of ATP into the reaction system,
# 5. incubating at 30° C. for half an hour;
# 6. terminating the reaction by adding a stop solution;
# 7. adding the detection buffer and incubating overnight; and
# 8. detecting by using homogeneous time-resolved fluorescence (HTRF) method (excitation wavelength of 320 nm, measuring the ratio of the emission wavelength readings at 615 nm and 665 nm).
# [4] = biological target: T2, PI3K (p110α); assay: In vitro enzyme activity assay, PI3K (p110α) kinase, Method II (ADP-Glo assay); assay type: biochemical; design: purchased Millipore 14-602-K; settings: read-out: PI3K (p110α) enzyme activity_IC50
# Description: as §2
# Dilution of the Compound:
# The compound to be tested was diluted with a 3-fold concentration gradient, and 10 concentrations (from 10000 nM to 0.5 nM) were obtained in total.
# 50 nL of the compound was transferred to a reaction plate (PerkinElmer #6007299) and 3 μL of enzyme/substrate mixture (0.33 nM PI3Kalpha, Millipore #14-602-K/166.5 μM PIP2) was added. After 20 min incubation, 2 uL of ATP solution (100 uM) was added to initiate the reaction. After reacting for 2 hours at room temperature, 5 μL of ADP-Glo reagent was added to terminate the kinase reaction. Then the mixture was incubated at room temperature for 60 min to completely digest the remaining unreacted ATP, 10 uL of kinase detection reagent was added, and after 40 min incubation at room temperature, […] was readed on an Envision. PIP2, ATP, ADP-Glo and the kinase detection reagent were all from ADP-Glo kinase assay kit (Promega #V1792).
# IC50 was calculated using standard 4-parameter fit method (Model205, XL-fit, iDBS).
# T1 sequence (P42345 1360-2549): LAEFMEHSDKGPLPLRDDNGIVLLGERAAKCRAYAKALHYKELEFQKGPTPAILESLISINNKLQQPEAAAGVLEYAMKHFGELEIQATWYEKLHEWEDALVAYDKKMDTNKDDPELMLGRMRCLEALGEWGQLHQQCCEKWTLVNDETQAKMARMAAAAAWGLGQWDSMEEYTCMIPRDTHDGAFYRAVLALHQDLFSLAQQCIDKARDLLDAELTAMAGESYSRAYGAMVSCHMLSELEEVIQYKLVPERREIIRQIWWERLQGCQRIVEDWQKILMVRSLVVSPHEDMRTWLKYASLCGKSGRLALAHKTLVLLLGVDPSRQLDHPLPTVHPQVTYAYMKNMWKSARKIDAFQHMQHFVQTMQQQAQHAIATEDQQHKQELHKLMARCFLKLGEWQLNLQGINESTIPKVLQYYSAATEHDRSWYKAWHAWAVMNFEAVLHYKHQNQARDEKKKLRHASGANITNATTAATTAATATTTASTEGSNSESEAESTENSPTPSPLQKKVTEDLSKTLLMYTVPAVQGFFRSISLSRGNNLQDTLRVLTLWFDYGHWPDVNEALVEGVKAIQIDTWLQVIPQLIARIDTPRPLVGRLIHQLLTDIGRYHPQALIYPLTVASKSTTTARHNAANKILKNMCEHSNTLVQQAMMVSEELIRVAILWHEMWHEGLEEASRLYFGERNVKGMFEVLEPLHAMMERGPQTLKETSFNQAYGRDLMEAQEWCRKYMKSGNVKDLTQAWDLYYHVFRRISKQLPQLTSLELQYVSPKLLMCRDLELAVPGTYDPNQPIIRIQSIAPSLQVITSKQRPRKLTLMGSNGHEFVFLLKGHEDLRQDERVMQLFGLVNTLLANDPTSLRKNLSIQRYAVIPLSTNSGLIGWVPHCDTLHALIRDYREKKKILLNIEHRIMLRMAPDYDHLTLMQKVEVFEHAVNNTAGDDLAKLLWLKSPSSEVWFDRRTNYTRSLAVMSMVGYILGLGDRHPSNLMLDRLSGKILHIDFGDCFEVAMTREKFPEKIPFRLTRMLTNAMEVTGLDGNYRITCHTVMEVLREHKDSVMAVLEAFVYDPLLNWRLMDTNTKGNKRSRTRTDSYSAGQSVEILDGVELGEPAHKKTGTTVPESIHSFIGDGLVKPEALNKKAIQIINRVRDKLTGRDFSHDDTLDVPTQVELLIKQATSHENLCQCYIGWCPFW
# T2 sequence (P42336 whole entry): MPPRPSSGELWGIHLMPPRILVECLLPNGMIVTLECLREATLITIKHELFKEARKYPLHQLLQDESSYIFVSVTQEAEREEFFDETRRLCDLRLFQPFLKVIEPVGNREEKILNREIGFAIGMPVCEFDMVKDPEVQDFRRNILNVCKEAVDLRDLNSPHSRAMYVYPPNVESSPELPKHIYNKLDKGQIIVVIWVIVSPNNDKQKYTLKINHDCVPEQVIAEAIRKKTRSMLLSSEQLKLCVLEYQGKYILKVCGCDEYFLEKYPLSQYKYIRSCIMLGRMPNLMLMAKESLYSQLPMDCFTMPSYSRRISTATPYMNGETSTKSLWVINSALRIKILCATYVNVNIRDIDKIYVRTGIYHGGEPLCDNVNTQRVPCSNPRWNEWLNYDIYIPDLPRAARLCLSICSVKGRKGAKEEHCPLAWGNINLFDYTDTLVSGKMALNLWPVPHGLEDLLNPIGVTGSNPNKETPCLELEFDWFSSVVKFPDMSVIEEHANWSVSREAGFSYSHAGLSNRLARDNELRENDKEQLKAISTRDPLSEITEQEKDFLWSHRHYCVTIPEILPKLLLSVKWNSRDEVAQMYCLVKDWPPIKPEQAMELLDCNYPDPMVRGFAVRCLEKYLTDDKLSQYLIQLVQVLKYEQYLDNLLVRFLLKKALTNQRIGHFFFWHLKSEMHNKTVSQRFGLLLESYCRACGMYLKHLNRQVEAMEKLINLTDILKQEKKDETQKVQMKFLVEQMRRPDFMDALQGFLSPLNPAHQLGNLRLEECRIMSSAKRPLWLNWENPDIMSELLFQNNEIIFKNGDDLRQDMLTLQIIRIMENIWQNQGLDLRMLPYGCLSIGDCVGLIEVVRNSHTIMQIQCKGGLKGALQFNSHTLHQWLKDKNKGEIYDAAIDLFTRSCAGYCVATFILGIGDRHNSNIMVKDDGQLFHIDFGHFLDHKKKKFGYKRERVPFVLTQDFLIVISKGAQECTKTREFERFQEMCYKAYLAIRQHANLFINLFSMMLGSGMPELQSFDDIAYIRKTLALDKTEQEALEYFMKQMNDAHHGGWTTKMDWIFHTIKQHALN
# T2 sequence (P27986 whole entry partner): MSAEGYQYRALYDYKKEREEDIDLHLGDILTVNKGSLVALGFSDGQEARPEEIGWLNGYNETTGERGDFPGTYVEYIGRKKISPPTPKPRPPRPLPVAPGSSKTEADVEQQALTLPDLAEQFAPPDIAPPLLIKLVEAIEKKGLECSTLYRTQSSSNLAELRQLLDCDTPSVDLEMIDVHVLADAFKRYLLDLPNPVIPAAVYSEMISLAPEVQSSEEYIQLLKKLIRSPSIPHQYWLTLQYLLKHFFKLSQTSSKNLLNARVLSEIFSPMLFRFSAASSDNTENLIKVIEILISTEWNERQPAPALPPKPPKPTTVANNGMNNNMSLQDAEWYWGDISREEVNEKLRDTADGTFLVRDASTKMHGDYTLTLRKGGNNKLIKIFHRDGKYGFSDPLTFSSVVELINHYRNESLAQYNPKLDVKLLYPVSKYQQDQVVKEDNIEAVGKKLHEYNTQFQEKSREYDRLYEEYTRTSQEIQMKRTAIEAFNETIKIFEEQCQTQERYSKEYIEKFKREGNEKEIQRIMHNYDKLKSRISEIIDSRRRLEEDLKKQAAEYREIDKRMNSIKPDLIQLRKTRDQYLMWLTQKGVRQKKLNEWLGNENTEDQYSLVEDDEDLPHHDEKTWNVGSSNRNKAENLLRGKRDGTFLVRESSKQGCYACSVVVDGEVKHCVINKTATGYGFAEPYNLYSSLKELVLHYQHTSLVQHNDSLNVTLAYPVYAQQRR
pIC50 [1],pIC50 [2],pIC50 [3],pIC50 [4],SMILES
6.70 to 7.30,≥ 7.30,≥ 9.00,–,"COc1ncc(-c2ccc3ncc(OCCN4CCC(F)(F)CC4)c(=O)n3c2)cc1NS(=O)(=O)c1sc(C)nc1C [Compound 1, N-(5-(3-(2-(4,4-difluoro-1-piperidinyl)ethoxy)-4-oxo-pyrido[1,2-a]pyrimidin-7-yl]-2-methoxypyridin-3-yl]-2,4-dimethylthiazole-5-sulfonamide]"
6.70 to 7.30,≥ 7.30,≥ 9.00,–,COc1ncc(-c2ccc3ncc(OCCN4CCC(F)CC4)c(=O)n3c2)cc1NS(=O)(=O)c1sc(C)nc1C [Compound 2]
< 6.70,< 6.60,≥ 9.00,–,COc1ncc(-c2ccc3ncc(OCCN4CCNCC4)c(=O)n3c2)cc1NS(=O)(=O)c1sc(C)nc1C [Compound 3]
< 6.70,–,≥ 9.00,–,CNCCOc1cnc2ccc(-c3cnc(OC)c(NS(=O)(=O)c4sc(C)nc4C)c3)cn2c1=O [Compound 6]
< 6.70,≥ 7.30,≥ 9.00,–,"COc1ncc(-c2ccc3ncc(OCCN4CCOCC4)c(=O)n3c2)cc1NS(=O)(=O)c1ccc(C)cc1C [Compound 7, 2,4-Dimethyl-N-(2-methoxy-5-(3-(2-morpholinoethoxy)-4-oxo-4H-pyrido[1,2-a]pyrimidin-4-one-7-yl)pyridin-3-yl)benzenesulfonamide]"
< 6.70,7.00 to 7.30,≥ 9.00,–,COc1ncc(-c2ccc3ncc(OCCN4CCOCC4)c(=O)n3c2)cc1NS(=O)(=O)c1ccc(F)cc1C [Compound 8]
< 6.70,6.60 to 7.00,≥ 9.00,–,COc1ncc(-c2ccc3ncc(OCCN4CCOCC4)c(=O)n3c2)cc1NS(=O)(=O)c1ccccc1F [Compound 9]
< 6.70,7.00 to 7.30,≥ 9.00,–,COc1ncc(-c2ccc3ncc(OCCN4CCOCC4)c(=O)n3c2)cc1NS(=O)(=O)c1ccccc1Cl [Compound 10]
< 6.70,≥ 7.30,≥ 9.00,–,COc1ncc(-c2ccc3ncc(OCCN4CCOCC4)c(=O)n3c2)cc1NS(=O)(=O)c1ccc(F)cc1Cl [Compound 11]
6.70 to 7.30,< 6.60,≥ 9.00,–,Cc1nc(C)c(S(=O)(=O)Nc2cc(-c3ccc4ncc(OCCN5CCOCC5)c(=O)n4c3)cnc2N)s1 [Compound 12]
< 6.70,–,≥ 9.00,–,COc1ncc(-c2ccc3ncc(OCCN4CCOCC4)c(=O)n3c2)cc1NS(=O)(=O)c1ccc(F)cc1F [Compound 13]
< 6.70,≥ 7.30,≥ 9.00,–,COc1ncc(-c2ccc3ncc(OCCN4CCOCC4)c(=O)n3c2)cc1NS(=O)(=O)c1ccc(Cl)s1 [Compound 14]
6.70 to 7.30,≥ 7.30,≥ 9.00,–,COc1ncc(-c2ccc3ncc(OCCN4CCOCC4)c(=O)n3c2)cc1NS(=O)(=O)c1sc(C)nc1C [Compound 15]
6.70 to 7.30,6.60 to 7.00,≥ 9.00,–,COc1ncc(-c2ccc3ncc(OCCN4CCOCC4)c(=O)n3c2)cc1NS(=O)(=O)c1sc(N)nc1C [Compound 16]
< 6.70,≥ 7.30,–,≥ 9.00,COc1ncc(-c2ccc3ncc(OCCN(C)C)c(=O)n3c2)cc1NS(=O)(=O)c1ccc(F)cc1Cl [Compound 25]
6.70 to 7.30,7.00 to 7.30,–,≥ 9.00,COc1ncc(-c2ccc3ncc(OCCN4CCCC4)c(=O)n3c2)cc1NS(=O)(=O)c1ccc(F)cc1Cl [Compound 27]
6.70 to 7.30,7.00 to 7.30,–,≥ 9.00,COc1ncc(-c2ccc3ncc(OCC4(N)CC4)c(=O)n3c2)cc1NS(=O)(=O)c1ccc(F)cc1Cl [Compound 32]
< 6.70,–,7.30 to 9.00,–,"COc1ncc(-c2ccc3ncc(OC4CCNCC4)c(=O)n3c2)cc1NS(=O)(=O)c1ccc(F)cc1F [Compound 41, 2,4-Difluoro-N-(2-methoxy-5-(4-oxo-3-(piperidin-4-yloxy)-4H-pyrido[1,2-a]pyrimidin-7-yl)pyridin-3-yl)benzenesulfonamide]"
< 6.70,–,≥ 9.00,–,COc1ncc(-c2ccc3ncc(OC4CCNC4)c(=O)n3c2)cc1NS(=O)(=O)c1ccc(F)cc1F (stereo not drawn) [Compound 44]
–,6.60 to 7.00,–,≥ 9.00,COc1ncc(-c2ccc3ncc(OCCN4CCC(O)CC4)c(=O)n3c2)cc1NS(=O)(=O)c1ccc(F)cc1Cl [Compound 79]
–,< 6.60,–,≥ 9.00,COc1ncc(-c2ccc3ncc(OCCNCCO)c(=O)n3c2)cc1NS(=O)(=O)c1ccc(F)cc1Cl [Compound 81]
–,6.60 to 7.00,–,≥ 9.00,COc1ncc(-c2ccc3ncc(OCCN4CCC(C)(O)CC4)c(=O)n3c2)cc1NS(=O)(=O)c1ccc(F)cc1Cl [Compound 82]
–,7.00 to 7.30,–,7.30 to 9.00,COc1ncc(-c2ccc3ncc(OC4CCN(C)C4)c(=O)n3c2)cc1NS(=O)(=O)c1ccc(F)cc1Cl (stereo not drawn) [Compound 85]
–,7.00 to 7.30,–,≥ 9.00,COc1ncc(-c2ccc3ncc(OCCN4CCOCC4C)c(=O)n3c2)cc1NS(=O)(=O)c1ccc(F)cc1Cl (stereo not drawn) [Compound 88]
–,≥ 7.30,–,≥ 9.00,COc1ncc(-c2ccc3ncc(OCCN4CCOC(C)C4)c(=O)n3c2)cc1NS(=O)(=O)c1ccc(F)cc1Cl (stereo not drawn) [Compound 89]
–,7.00 to 7.30,–,≥ 9.00,COc1ncc(-c2ccc3ncc(OCCN4CCN(C(C)=O)CC4)c(=O)n3c2)cc1NS(=O)(=O)c1ccc(F)cc1Cl [Compound 90]
–,≥ 7.30,–,7.30 to 9.00,COCCN(CCOc1cnc2ccc(-c3cnc(OC)c(NS(=O)(=O)c4ccc(F)cc4Cl)c3)cn2c1=O)CC(F)(F)F [Compound 95]
